In patent EP0729956B1, “Benzothiophene compounds, intermediates, compositions, and methods” (ELI LILLY AND COMPANY, priority 1995, dated 1996):
Where a name gives a salt, the structure may show the parent alone. Read-outs that look alike come from different tables or passages of the source.

Columns and labels:
ovariectomized rats [1] = tested on: ovariectomized rats; set-up: species or system Sprague Dawley rats; settings: rat, in vivo, po
Source text: (§1) Seventy-five day old female Sprague Dawley rats (weight range of 200 to 225g) were obtained from Charles River Laboratories (Portage, MI). The animals were either bilaterally ovariectomized (OVX) or exposed to a Sham surgical procedure at Charles River Laboratories, and then shipped after one week. Upon arrival, they were housed in metal hanging cages in groups of 3 or 4 per cage and had ad libitum access to food (calcium content approximately 0.5%) and water for one week. Room temperature was maintained at 22.2° ± 1.7° C with a minimum relative humidity of 40%. The photoperiod in the room was 12 hours light and 12 hours dark.
(§2) After a one week acclimation period (therefore, two weeks post-OVX) daily dosing with test compound was initiated. 17a-ethynyl estradiol or the test compound were given orally, unless otherwise stated, as a suspension in 1% carboxymethylcellulose or dissolved in 20% cyclodextrin. Animals were dosed daily for 4 days. Following the dosing regimen, animals were weighed and anesthetized with a ketamine: Xylazine (2:1, V:V) mixture and a blood sample was collected by cardiac puncture. The animals were then sacrificed by asphyxiation with CO2, the uterus was removed through a midline incision, and a wet uterine weight was determined.
Uteri were kept at 4° C until time of enzymatic analysis. The uteri were then homogenized in 50 volumes of 50 mM Tris buffer (pH - 8.0) containing 0.005% Triton X-100. Upon addition of 0.01% hydrogen peroxide and 10 mM O-phenylenediamine (final concentrations) in Tris buffer, increase in absorbance was monitored for one minute at 450 nm. The presence of eosonophils in the uterus is an indication of estrogenic activity of a compound. The maximal velocity of a 15 second interval was determined over the initial, linear portion of the reaction curve.

ovariectomized rats [2] = assay: Serum cholesterol analysis (OVX rat, 4-day dosing); assay type: in vivo, Sprague Dawley rats; settings: Rattus norvegicus, po, 96 h, daily for 4 days, read-out: Serum Cholesterol (% decrease vs. OVX)
Source text: as §1, §2
Blood samples were allowed to clot at room temperature for 2 hours, and serum was obtained following centrifugation for 10 minutes at 3000 rpm. Serum cholesterol was determined using a Boehringer Mannheim Diagnostics high performance cholesterol assay. Briefly the cholesterol was oxidized to cholest-4-en-3-one and hydrogen peroxide. The hydrogen peroxide was then reacted with phenol and 4-aminophenazone in the presence of peroxidase to produce a p-quinone imine dye, which was read spectrophotemetrically at 500 nm. Cholesterol concentration was then calculated against a standard curve. The entire assay was automated using a Biomek Automated Workstation.

[3] = tested on: ovariectomized test animals; assay: Osteoporosis Test Procedure (OVX rat, 35-day dosing, distal femur metaphysis X-ray image analysis); assay type: in vivo, Sprague Dawley rats; settings: OVX rats, daily for 35 days, mean ± SEM
Source text: as §1
Following the General Preparation Procedure, infra, the rats were treated daily for 35 days (6 rats per treatment group) and sacrificed by carbon dioxide asphyxiation on the 36th day. The 35 day time period was sufficient to allow maximal reduction in bone density, measured as described herein. At the time of sacrifice, the uteri were removed, dissected free of extraneous tissue, and the fluid contents were expelled before determination of wet weight in order to confirm estrogen deficiency associated with complete ovariectomy. […] The uteri were then placed in 10% neutral buffered formalin to allow for subsequent histological analysis.
The right femurs were excised and digitilized x-rays generated and analyzed by an image analysis program (NIH image) at the distal metaphysis. The proximal aspect of the tibiae from these animals were also scanned by quantitative computed tomography.
In accordance with the above procedures, compounds of the present invention and ethynyl estradiol (EE2) in 20% hydroxypropyl b-cyclodextrin were orally administered to test animals. Distal femur metaphysis data presented in Tables 2 and 3 below are the results of formula I compound treatments compared to intact and ovariectomized test animals. Results are reported as the mean ± the standard error of the mean.

[4] = tested on: MCF-7 breast adenocarcinoma cells; assay: MCF-7 Proliferation Assay (tritiated thymidine); assay type: cell-based; settings: Homo sapiens, MCF7; MCF-7 cells, 48 hours with drug, tritiated thymidine pulse 4 hours
Procedure: MCF-7 breast adenocarcinoma cells (ATCC HTB 22) were maintained in MEM (minimal essential medium, phenol red-free, Sigma, St. Louis, MO) supplimented with 10% fetal bovine serum (FBS) (V/V), L-glutamine (2 mM), sodium pyruvate (1 mM), HEPES {(N-[2-hydroxyethyl]piperazine-N'-[2-ethanesulfonic acid]10 mM}, non-essential amino acids and bovine insulin (1 ug/mL) (maintenance medium). Ten days prior to assay, MCF-7 cells were switched to maintenance medium supplemented with 10% dextran coated charcoal stripped fetal bovine serum (DCC-FBS) assay medium) in place of 10% FBS to deplete internal stores of steroids. MCF-7 cells were removed from maintenance flasks using cell dissociation medium (Ca++/Mg++ free HBSS (phenol red-free) supplemented with 10 mM HEPES and 2 mM EDTA). Cells were washed twice with assay medium and adjusted to 80,000 cells/mL. Approximately […] (8,000 cells) were added to flat-bottom microculture wells (Costar 3596) and incubated at 37° C in a 5% CO2 humidified incubator for 48 hours to allow for cell adherence and equilibration after transfer. Serial dilutions of drugs or DMSO as a diluent control were prepared in assay medium and […] to triplicate microcultures followed by […] assay medium for a final volume of […]. After an additional 48 hours at 37° C in a 5% CO2 humidified incubator, microcultures were pulsed with tritiated thymidine (1 uCi/well) for 4 hours. Cultures were terminated by freezing at -70° C for 24 hours followed by thawing and harvesting of microcultures using a Skatron Semiautomatic Cell Harvester. Samples were counted by liquid scintillation using a Wallac BetaPlace b counter. Results in Table 4 below show the IC50 for certain compounds of the present invention.

Row | SMILES | Uterine EPO (V. max) (ovariectomized rats [1]; 0.1 mg/kg) | Uterine EPO (V. max) (ovariectomized rats [1]; 1 mg/kg) | Uterine EPO (V. max) (ovariectomized rats [1]; 10 mg/kg) | IC50 [4] [nM] | Uterine EPO (V. max) (ovariectomized rats [1]; 0.01 mg/kg) | inhibition in vivo at 0.1 mg/kg (ovariectomized rats [2]) [%] | inhibition in vivo at 1 mg/kg (ovariectomized rats [2]) [%] | inhibition in vivo at 10 mg/kg (ovariectomized rats [2]) [%] | Distal Femur Metaphysis (X-ray Image Analysis-Gray Score) ([3]; Table 3, oral, dose 0.1 mg/kg, OVX control 6.2 ± 1.4, Sham 31.1 ± 6.3) | Distal Femur Metaphysis (X-ray Image Analysis-Gray Score) ([3]; Table 3, oral, dose 1.0 mg/kg, OVX control 6.2 ± 1.4, Sham 31.1 ± 6.3) | Distal Femur Metaphysis (X-ray Image Analysis-Gray Score) ([3]; Table 3, oral, dose 3.0 mg/kg, OVX control 6.2 ± 1.4, Sham 31.1 ± 6.3) | inhibition in vivo at 0.01 mg/kg (ovariectomized rats [2]) [%] | Distal Femur Metaphysis (X-ray Image Analysis-Gray Score) ([3]; Table 2, oral in 20% hydroxypropyl b-cyclodextrin, dose 0.1 mg/kg, OVX control 8.1 ± 1.8, Sham 27.2 ± 6.0) | Distal Femur Metaphysis (X-ray Image Analysis-Gray Score) ([3]; Table 2, oral, dose 1.0 mg/kg, OVX control 8.1 ± 1.8, Sham 27.2 ± 6.0) | Distal Femur Metaphysis (X-ray Image Analysis-Gray Score) ([3]; Table 2, oral, dose 10.0 mg/kg, OVX control 8.1 ± 1.8, Sham 27.2 ± 6.0)
1 | Oc1ccc(-c2sc3ccccc3c2Oc2ccc(OCCN3CCCC3)cc2)cc1 [Example 3, [3-[4-[2-(1-pyrolidinyl)ethoxy]phenoxy]-2-(4-hydroxyphenyl)]benzo[b]thiophene] | 4.8 | 5.4 | – | 4 | 1.8 | 47.8 | 49.2 | – | – | – | – | 50.6 | – | – | –
2 | Oc1ccc(-c2sc3cc(O)ccc3c2Oc2ccc(OCCN3CCCCC3)cc2)cc1 [Example 19, [6-hydroxy-3-[4-[2-(1-piperidinyl)-ethoxy]phenoxy]-2-(4-hydroxyphenyl)]benzo[b]thiophene oxalate] | 2.4 | 3.6 | – | 0.028 | 2.1 | 45.3 | 53.6 | – | – | – | – | 25.1 | 14.7 ± 1.9 | 15.0 ± 3.5∗ | 15.3 ± 4.0∗
3 | CCN(CC)CCOc1ccc(Oc2c(-c3ccc(O)cc3)sc3cc(O)ccc23)cc1 [Example 23, [6-Hydroxy-3-[4-[2-(1-N,N-diethylamino)ethoxy]phenoxy]-2-(4-hydroxyphenyl)]benzo[b]thiophene] | 84.3 | 150.6 | – | 0.08 | 3.3 | 47.2 | 66.1 | – | – | – | – | 36.2 | – | – | –
4 | Oc1ccc(-c2sc3cc(O)ccc3c2Sc2ccc(OCCN3CCCCC3)cc2)cc1 [Example 53, [6-Hydroxy-3-[4-[2-(1-piperidinyl)ethoxy]-thiophenoxy]-2-(4-hydroxyphenyl)]benzo[b]thiophene] | 0.9 | 1.3 | 4.8 | 0.28 | – | 62.7 | 57.5 | 58.7 | – | – | – | – | – | – | –

More lines, in order of falling IC50 [4], values ahead:

Row | Uterine EPO (V. max) (ovariectomized rats [1]; 0.1 mg/kg) | Uterine EPO (V. max) (ovariectomized rats [1]; 1 mg/kg) | Uterine EPO (V. max) (ovariectomized rats [1]; 10 mg/kg) | IC50 [4] [nM] | Uterine EPO (V. max) (ovariectomized rats [1]; 0.01 mg/kg) | SMILES | inhibition in vivo at 0.1 mg/kg (ovariectomized rats [2]) [%] | inhibition in vivo at 1 mg/kg (ovariectomized rats [2]) [%] | inhibition in vivo at 10 mg/kg (ovariectomized rats [2]) [%] | Distal Femur Metaphysis (X-ray Image Analysis-Gray Score) ([3]; Table 3, oral, dose 0.1 mg/kg, OVX control 6.2 ± 1.4, Sham 31.1 ± 6.3) | Distal Femur Metaphysis (X-ray Image Analysis-Gray Score) ([3]; Table 3, oral, dose 1.0 mg/kg, OVX control 6.2 ± 1.4, Sham 31.1 ± 6.3) | Distal Femur Metaphysis (X-ray Image Analysis-Gray Score) ([3]; Table 3, oral, dose 3.0 mg/kg, OVX control 6.2 ± 1.4, Sham 31.1 ± 6.3) | inhibition in vivo at 0.01 mg/kg (ovariectomized rats [2]) [%] | Distal Femur Metaphysis (X-ray Image Analysis-Gray Score) ([3]; Table 2, oral in 20% hydroxypropyl b-cyclodextrin, dose 0.1 mg/kg, OVX control 8.1 ± 1.8, Sham 27.2 ± 6.0) | Distal Femur Metaphysis (X-ray Image Analysis-Gray Score) ([3]; Table 2, oral, dose 1.0 mg/kg, OVX control 8.1 ± 1.8, Sham 27.2 ± 6.0) | Distal Femur Metaphysis (X-ray Image Analysis-Gray Score) ([3]; Table 2, oral, dose 10.0 mg/kg, OVX control 8.1 ± 1.8, Sham 27.2 ± 6.0)
5 | 12.0 | 17.7 | 4.8 | 2 | – | COc1ccc(-c2sc3cc(OC)ccc3c2Oc2ccc(OCCN3CCCCC3)cc2)cc1 [Example 10, [6-methoxy-3-[4-[2-(1-piperidinyl)ethoxy]-phenoxy]-2-(4-methoxyphenyl)]benzo[b]thiophene] | 50.2 | 59 | 38.9 | 15.3 ± 3.0 | 15.2 ± 3.7 | 18.5 ± 3.2∗ | – | – | – | –
6 | 4.8 | 9.3 | – | 0.05 | 1.2 | Oc1ccc(-c2sc3cc(O)ccc3c2Oc2ccc(OCCN3CCCC3)cc2)cc1 [Example 21, [6-Hydroxy-3-[4-[2-(1-pyrolidinyl)ethoxy]phenoxy]-2-(4-hydroxyphenyl)]benzo[b]thiophene] | 47.5 | 54.4 | – | – | – | – | 26.8 | – | – | –
